Source: patent publication US20170042870A1, “TARGETED NANOPARTICLE COMPOSITIONS AND METHODS OF THEIR USE TO TREAT OBESITY” (priority 2014, published 2017)

Tests used:
[1] = test system: stromal vascular fragments (SVF) from WAT; test: qRT-PCR of integrin expression in SVF treated in vitro; format: cell-based, mice; conditions: Rosi 1 μM
Experimental: (§1) WAT was dissected and extensively washed with Hank's Balanced Salt Solution (HBSS, Invitrogen). Tissues were cut into small pieces using a surgical scissor, and digested with 0.1% collagenase A in HBSS and 1% bovine serum albumin (SigmaAldrich) for 30 minutes at 37 C with gentle shaking. The digested tissues were suspended in Dulbecco's modified Eagle's medium containing 10% fetal bovine serum, and then passed through a 100 μm cell strainer (BD Falcon) to remove debris. Subsequently, cell suspension was centrifuged for 10 minutes at 300×g. 3. After removal of the floating cell layer and supernatant, the cell pellet was resuspended in 10 ml of HBSS, and then filtered through a 40 μm cell strainer (BD Falcon). The filtered cell suspension was layered on top of a Histopaque-1077 solution (10 ml) in a 50 ml tube, and then centrifuged at 400 g for 30 min at room temperature. The SVF cell layer at the gradient interface was collected and washed with HBSS. Cell counts and viability assessment were performed. Primary SVF or sorted cells were maintained in DMEM plus 10% FCS, 1% penicillin/streptomycin, and 10 ng/ml murine bFGF (R&D Systems).
(§2) Angiogenic vessels usually express high levels of integrins, particularly αv and β3 subunits. […]

[2] = test system: stromal vascular fragments (SVF) from WAT; test: Proliferation and cellular toxicity of SVF; format: cell-based, mice; conditions: in vitro
Experimental: as §1, §2

CD31+ SVF = test: Integrinαv antibody staining of CD31-sorted SVF; format: cell-based, mice; conditions: in vitro
Experimental: Angiogenic vessels usually express high levels of integrins, particularly αv and β3 subunits. To evaluate whether Rosi-loaded NPs can effectively induce expression of integrins on vascular cells, the stromal vascular fragments (SVF) were isolated from WAT, followed by treatment with Rosi (1 μM) in either solution or non-targeted NP form. CD31+ SVF was sorted and stained with Integrinαv antibody, Isolectin B4 and DAPI. C57Bl/6 mice were treated with Rosi, NP-Rosi, iRGD-NP-Rosi or P3-NP-Rosi for two weeks (n=3). IngWAT, epiWAT and livers were dissected and representative samples were imaged under IVIS imaging system. Inguinal WAT and epididymal WAT were dissected and representative samples were photographed.
It should also be noted that no evidence of cellular toxicity was observed under all the conditions. SVFs were sorted with an endothelial marker CD31, and stained cells with an Integrinαv antibody.

[3] = Body weight gain and food intake in DIO mice; format: in vivo, C57Bl/6 mice; conditions: 25 days post treatment, vs non-treated obese mice
Text: All animal studies were approved by the Committee on Animal Care, Massachusetts Institute of Technology. 6-week-old male wild-type mice and 10-week-old male diet-induced obese mice, of the C57Bl/6 strain, were used in current studies. High-fat-diet (TD-06414, 60/Fat) was purchased from Harlan Laboratories, and was used to induce and maintain obesity in C57Bl/6 mice.
Standard diet fed or high-fat-diet fed C57Bl/6 mice were intravenous injected with either NP constructs or free drug (rosiglitazone or 16,16-dimethyl-PGE2) at the drug dose of 80 mg/kg, every second day. Free Rosi was dissolved in DMSO followed by dilution in saline.
The high-fat-diet induced obese model was used to assess the possible impact of the two peptide-NP-Rosi on body weight, tissue histology, and molecular expression profiles. There was no difference in body weight gain between the mice treated with Rosi (in solution and non-targeted NP forms) and non-treated obese mice (FIGS. 5A and B).

[4] = Serological parameters in fasted DIO mice; format: in vivo, C57Bl/6 mice; conditions: 25 days
Experimental: Serum levels of free fatty acid, glucose, triglycerides and cholesterol contents from fasted obese mice were determined by standard kits from Cayman Chemical Co. (Ann Arbor, Mich.). Serum insulin from fasted obese mice was determined by ELISA method according to manufacturer's protocol (Millipore, Billerica, Mass.).
Serum was collected from DIO mice that were fasted for five hours following 25 days of treatments, and analyzed for levels of serological parameters.

## CN(CCOc1ccc(CC2SC(=O)NC2=O)cc1)c1ccccn1 (racemic) [Rosi, (RS)-5-[4-(2-[methyl(pyridin-2-yl)amino]ethoxy)benzyl]thiazolidine-2,4-dione]
[1]
  expression level of Integrinαv on SVF (qRT-PCR): elevated the expression levels of Integrinαv
[2]
  proliferation of SVF: stimulated the proliferation of SVF
CD31+ SVF
  Integrinαv on CD31-sorted SVF (antibody staining): upregulated
[3]
  body weight gain: no difference
[4]
  reduction of serum insulin: 3 folds
